The numbers were not newly measured in patent publication US20090181887A1, “USE OF A GLP-1 MOLECULE FOR TREATMENT OF BILIARY DYSKINESIA AND/OR BILIARY PAIN/DISCOMFORT” (Gastrotech Pharma A/S, priority 2005, published 2009), which cites them from elsewhere.

Where no end group is shown, it is not given here.

For the data set the following is noted: in man; Wettergren et al, 1993; Gutniak et al, 1996.

For “glucagon-like peptide-1 (HAEGTFTSDVSSYLEGQAAKEFIAWLVKGR-NH2; ends and bridges not checked; UniProt P01275 98-127, looked up) [GLP-1, gastrointestinal peptide hormone; natural forms GLP-1 (7-36)amide and GLP-1 (7-37)]”, the “slowing of gastric emptying” value is listed as 50%.
